Earlier results on one molecule are cited in US11612656B2, “Use of small molecule based on indotricarbocyanine structure in preparation of medicines for tumor photothermal therapy” (Nanjing Nuoyuan Medical Devices Co., LTD., priority 2021, dated 2023).

For the data set the following is noted: free ICG 20 μg/ml, light irradiation at power density 1 W/cm^2.

With `CC1(C)C(/C=C/C=C/C=C/C=C2/N(CCCCS(=O)(=O)O)c3ccc4ccccc4c3C2(C)C)=[N+](CCCCS(=O)(=O)O)c2ccc3ccccc3c21.[Na+]` [ICG, Indocyanine green], the “photothermal conversion efficiency (PTCE)” value is 15.1%.
